Where two headings read alike, the source gives them in different places.
How the values were obtained:
[1] = Log D measurement; format: physicochemical; settings: pH 7.4; read-out: Log D measured at pH 7.4
Source text: (§1) log P: partition coefficient; lipophilicity measurement. log D: distribution co-efficient; lipophilicity measurement. TPSA: topological polar surface area. Turbidimetric solubility: Test compound solution prepared in DMSO diluted into aqueous buffer. Turbidimetry is used as the end-point by measuring absorbance at 620 nm. FaSSIF: simulated intestinal fluid in fasted state measured at pH 6.5. Hep Cl mouse: in vitro hepatocyte clearance in mouse cells. Hep Cl human: in vitro hepatocyte clearance in human cells. Plasma fu,p: The free fraction of a compound in plasma preparation determined by in vitro equilibrium dialysis. It is understood that only unbound (free) compound is capable of engaging with the target. Brain fu,br: The free fraction of a compound in brain homogenate preparation determined by in vitro equilibrium dialysis. It is understood that only unbound (free) compound is capable of engaging with the target. Clu: in vitro clearance. Clu as defined here is the scaled clearance, in turn calculated from the intrinsic clearance. The intrinsic clearance is the predicted clearance due to hepatic metabolic reactions, determined from incubation of a compound in a hepatocyte preparation. […] Cl in vivo clearance: Pharmacokinetic measurement of the volume of plasma (or any matrix) from which a substance is completely removed per unit time.

[2] = test system: P-glycoprotein (MDR1), human; test: MDR1-MDCK flux assay; format: in vitro ADME; settings: dog; for Papp A→B: value in brackets
Source text: The treatment of CNS disorders, including Alzheimer's disease, Parkinson's disease, and other disorders described herein, requires drug molecules to target the brain, which requires adequate penetration of the blood brain barrier. […] The probability that a compound can cross the blood brain barrier may be measured by an in vitro flux assay utilizing a MDR1-MDCK cell monolayer (Madin-Darby Canine Kidney cells transfected with MDR-1 resulting in overexpression of the human efflux transporter P-glycoprotein). Additionally, exposure may also be measured directly in brain and plasma using in vivo animal models.
(§2) MDR1-MDCK (Madin-Darby Canine Kidney cell monolayer) (in vitro) flux assay. Cell TE WB: USP30 endogenous cellular target engagement western blot (WB) assay. Assays the activity of compounds against USP30 in cells using an irreversible activity probe to monitor USP30 activity. TE ex vivo: USP30 kidney tissue target engagement assay. Kp u,u is the ratio of unbound drug in brain to unbound drug in plasma and may be indicative of potential for treating peripheral and/or CNS indications.

[3] = Brain homogenate free fraction by equilibrium dialysis; format: in vitro ADME; settings: mouse brain homogenate; read-out: Binding Mouse Brain fu, br
Source text: as §1

[4] = Plasma free fraction by equilibrium dialysis; format: in vitro ADME; settings: mouse plasma; read-out: Binding Mouse Plasma fu, p
Source text: as §1

[5] = target: T1, UCHL1 (Homo sapiens, UniProt P09936); test: DUB IC50 UCHL1; format: biochemical
T1 sequence (P09936 1-223): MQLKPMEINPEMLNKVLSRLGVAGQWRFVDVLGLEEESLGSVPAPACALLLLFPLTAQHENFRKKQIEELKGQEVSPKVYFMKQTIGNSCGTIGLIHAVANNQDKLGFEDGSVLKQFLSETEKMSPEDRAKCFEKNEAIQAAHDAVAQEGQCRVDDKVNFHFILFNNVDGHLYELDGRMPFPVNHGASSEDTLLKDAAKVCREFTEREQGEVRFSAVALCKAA

[6] = test system: USP2, USP10, USP16, USP21, USP22, USP25, USP28; test: DUB IC50, seven DUBs; format: biochemical; settings: range over the seven DUBs
[7] = test system: T2, USP2, USP10, USP16, USP21, USP22, USP25, USP28; test: DUB IC50, seven DUBs; format: biochemical; settings: range over the seven DUBs
T2 construct: DUB IC50 (μM) USP2, USP10, USP16, USP21, USP22, USP25, USP28; other: range over the seven DUBs

[8] = target: Cathepsin S (Homo sapiens, UniProt P25774); test: Cathepsin IC50, Cathepsin S; format: biochemical
[9] = PK mouse; format: in vivo; settings: for Unbound plasma Cmax/TOM20-Ub cell potency: 10 mg/kg PO dose - mouse; for bioavailability: po, 10 mg/kg, read-out: PK mouse Oral F (%); for bioavailability / clearance: mouse
Source text: as §1, §2

[10] = test system: cathepsins B, K, L, S and V; test: Cathepsin IC50, summary over B, K, L, S, V; format: biochemical; settings: K, L; for fold more potent against USP30 than against each of the cathepsins, at a minimum: cathepsins B, S and V; for Selectivity preference for USP30 v cathepsins: range over cathepsins B, S
[11] = test system: T3, cathepsins B, K, L, S and V; test: Cathepsin IC50, summary over B, K, L, S, V; format: biochemical; settings: range over the five cathepsins
T3 construct: Cathepsin IC50 (μM) B, K, L, S, V; other: range over the five cathepsins

[12] = target: Cathepsin K (Homo sapiens, UniProt P43235); test: Cathepsin IC50, Cathepsin K; format: biochemical
[13] = target: T4, hERG potassium channel (Homo sapiens, UniProt Q12809); test: hERG potassium channel in stably expressed CHO cells; format: cell-based; settings: for IC50: 0.01 to 30 μM, n=3; for inhibition at 30 µM: human, CHO cells stably expressing hERG, read-out: inhibition of the hERG current amplitude
T4 construct: expressed in transfected cells
Procedure: The hERG predictor assay provides valuable information about the possible binding of test compounds to the potassium channel and potential QT prolongation on […]. Inhibition of the hERG current causes QT interval prolongation resulting in potentially fatal ventricular tachyarrhythmia (Torsades de Pointes). Typically, assay data may be generated from an automated patch-clamp assay platform.
Example 1 was evaluated for effects on the hERG potassium channel, in stably expressed CHO cells at concentrations between 0.01 and 30 μM.
Example 2 was evaluated for effects on the hERG potassium channel, in stably expressed CHO cells at concentrations between 0.01 and 30 μM.

[14] = whole blood, 2 mg/kg iv, read-out: PK mouse Cl blood

T4 sequence (Q12809 whole entry): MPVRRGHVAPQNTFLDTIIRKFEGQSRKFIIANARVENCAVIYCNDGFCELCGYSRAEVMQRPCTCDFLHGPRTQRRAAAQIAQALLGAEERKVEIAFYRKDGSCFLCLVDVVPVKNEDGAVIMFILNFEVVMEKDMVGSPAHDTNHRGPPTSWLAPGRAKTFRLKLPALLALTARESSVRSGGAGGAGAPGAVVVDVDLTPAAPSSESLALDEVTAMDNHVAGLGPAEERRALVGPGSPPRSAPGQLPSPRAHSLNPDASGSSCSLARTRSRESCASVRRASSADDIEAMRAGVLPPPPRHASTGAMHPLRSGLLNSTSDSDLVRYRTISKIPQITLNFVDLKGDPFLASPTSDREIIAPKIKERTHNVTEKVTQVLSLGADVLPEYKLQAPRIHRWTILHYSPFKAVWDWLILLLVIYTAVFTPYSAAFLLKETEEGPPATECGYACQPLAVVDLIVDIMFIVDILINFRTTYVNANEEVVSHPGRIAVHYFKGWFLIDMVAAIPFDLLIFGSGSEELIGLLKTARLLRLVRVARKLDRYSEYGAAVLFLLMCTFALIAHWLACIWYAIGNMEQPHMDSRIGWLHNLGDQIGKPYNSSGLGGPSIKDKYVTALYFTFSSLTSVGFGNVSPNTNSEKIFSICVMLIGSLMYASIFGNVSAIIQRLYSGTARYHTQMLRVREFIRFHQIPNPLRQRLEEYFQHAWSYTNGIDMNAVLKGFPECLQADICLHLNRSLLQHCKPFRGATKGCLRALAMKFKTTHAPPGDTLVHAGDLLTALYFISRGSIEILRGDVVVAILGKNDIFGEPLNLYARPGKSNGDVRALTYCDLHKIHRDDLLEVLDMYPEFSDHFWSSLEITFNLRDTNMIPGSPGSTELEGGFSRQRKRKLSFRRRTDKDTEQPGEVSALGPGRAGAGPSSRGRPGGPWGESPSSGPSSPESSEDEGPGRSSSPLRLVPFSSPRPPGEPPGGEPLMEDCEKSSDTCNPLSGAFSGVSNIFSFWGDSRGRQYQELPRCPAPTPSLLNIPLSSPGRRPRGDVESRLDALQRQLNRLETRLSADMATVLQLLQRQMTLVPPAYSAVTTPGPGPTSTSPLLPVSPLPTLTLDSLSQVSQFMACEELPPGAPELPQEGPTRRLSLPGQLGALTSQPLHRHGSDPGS
Cathepsin S, sequence (P25774 115-331, species assumed): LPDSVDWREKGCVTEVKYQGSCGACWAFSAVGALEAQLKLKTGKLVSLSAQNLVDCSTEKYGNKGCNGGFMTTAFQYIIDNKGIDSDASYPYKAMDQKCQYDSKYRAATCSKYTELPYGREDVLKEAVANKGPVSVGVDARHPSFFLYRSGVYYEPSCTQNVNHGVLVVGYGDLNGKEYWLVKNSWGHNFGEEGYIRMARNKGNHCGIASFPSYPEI
Cathepsin K, sequence (P43235 115-329, species assumed): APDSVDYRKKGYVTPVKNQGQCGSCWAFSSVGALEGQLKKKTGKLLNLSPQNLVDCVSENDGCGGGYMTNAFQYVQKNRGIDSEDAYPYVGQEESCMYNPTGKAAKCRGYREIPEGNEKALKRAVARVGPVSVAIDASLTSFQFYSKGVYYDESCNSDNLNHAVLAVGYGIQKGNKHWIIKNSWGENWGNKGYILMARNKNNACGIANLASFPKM

Row | SMILES | logD [1] | efflux ratio [2] | Papp A→B [2] [×10⁻⁶ cm/s] | fraction unbound [3] | fraction unbound [4] | DUB selectivity preference for USP30 v UCHL1 [5] | IC50 [5] [µM] | DUB selectivity preference for USP30 v 7 DUBs [6] | IC50 [7] [µM] | IC50 [8] [µM] | Unbound plasma Cmax/TOM20-Ub cell potency [9] | clearance [9, 14] [mL/min/kg] | fold more potent against USP30 than against each of the cathepsins, at a minimum [10] [fold] | Selectivity preference for USP30 v cathepsins [10] | IC50 [11] [µM] | IC50 [12] [µM] | IC50 [13] [µM] | inhibition at 30 µM [13] [%] | other results
1 | COC[C@@H]1C[C@@H](NC(=O)c2ncc(-c3cccc(OC(F)(F)F)c3)o2)CN1C#N [Example 1, N-((3R,5S)-1-Cyano-5-(methoxymethyl)pyrrolidin-3-yl)-5-(3-(trifluoromethoxy)phenyl)oxazole-2-carboxamide] | 2.9 | 5.4 | 18 | 0.043 | 0.06 | 60000 | > 300 | 880-14380 | 4.4 to 71.9 | 158 | 25-fold | 20 | ≥ 3300 | 3300-31600 | 16.5 to 158 | 16.5 | 34.3 | 44.3 | Kp uu ([9]; 2 mg/kg IV dose - mouse, unbound brain to unbound plasma): 0.21; bioavailability ([9]; plasma): 59%; clearance ([9]; plasma, IV, read-out: IV plasma clearance): 20 mL/min/kg
2 | C[C@@H]1C[C@@H](NC(=O)c2ncc(-c3cccc(OC(F)(F)F)c3)o2)CN1C#N [Example 2, N-((3R,5R)-1-Cyano-5-methylpyrrolidin-3-yl)-5-(3-(trifluoromethoxy)phenyl)oxazole-2-carboxamide] | 3.4 | 1.9 | 12 | 0.028 | 0.05 | 20000 | > 100 | 940->20000 | ≥ 4.7 | > 30 | 7-fold | 58 | ≥ 1700 | 1700-6000 | ≥ 8.5 | 9.8 | 24.7 | 54.3 | bioavailability ([9]; in vivo): 36%
